Laboratory results: patent US20110098257A1, “DERIVATIVES OF 4- OR 5-AMINOSALICYLIC ACID” (ANTIBE THERAPEUTICS INC., priority 2005, published 2011)

How the values were obtained:
[1] = test system: mice having TNBS-induced colitis; test: TNBS-induced colitis in mice (disease activity score, colonic MPO activity); format: in vivo, Balb/c mice
Experimental: A standard experimental animal model of colitis induced by intracolonic administration of 2,4,6-trinitrobenzene sulfonic acid (TNBS) to mice is used in the following example. A detailed description of this model has been published (Santucci et al. (2003) Gastroenterology 124:1381-94) and is incorporated herein by reference. Briefly, 6-8 week old Balb/c mice were given TNBS intracolonically at a dose of 1.5 mg in 0.1 mL of 30% ethanol. The mice were randomized to the various treatment groups (n=6 per group). Beginning one hour later and continuing every 12 h for 5 days, the mice were treated orally with vehicle (1% carboxymethylcellulose (CMC)), 5-ASA (mesalamine) (25, 50 or 75 mg/kg) or with equimolar doses of 2-hydroxy-5-amino-benzoic acid 4-(thioxo-5H-[1,2]dithiol-3-yl)-phenyl ester hydrochloride (Compound XXXV) (130 mg/kg), or with […] (100 mg/kg), 50% (66 mg/kg) and 25% (33 mg/kg) of that dose. The mice were evaluated (blindly) on the final day of the study for the presence of diarrhea and fecal occult blood, and their body weights were measured. […] After sacrifice, a sample of the colon was excised for measurement of myeloperoxidase (MPO) activity, as a marker of granulocyte infiltration. All results were compared to those obtained with healthy mice as well.
FIGS. 3 and 4 show the Disease Activity Index and MPO activity, respectively, using the same experimental animal model of colitis as described above, in which Compound XXXV (130 mg/kg) was compared to equimolar doses of its two constituents, mesalamine (50 mg/kg) and 5-p-hydroxyphenyl-[…] (ADT-OH) (80 mg/kg), and a mixture of mesalamine (50 mg/kg) and ADT-OH (80 mg/kg). *p<0.05 versus the vehicle-treated group. Each group consisted of at least 5 rats.
FIGS. 6 and 7 show the Disease Activity Index and MPO, respectively, using the same experimental animal model of colitis as described above, in which Compound XXVII (100 mg/kg) was compared to equimolar doses of its two constituents, mesalamine (50 mg/kg) and 4-hydroxythiobenzamide (4-HTB) (50 mg/kg), mesalamine alone (50 mg/kg) and 4-HTB alone (50 mg/kg). *p<0.05 versus the vehicle-treated group. Each group consisted of at least 5 rats.
(§1) The same model was used as described above. In this example, the effects of mesalamine (50 mg/kg) were compared to those of equimolar doses of Compound XXXV. In addition to measuring the severity of colitis by measuring disease activity score and MPO activity, tissues were processed for measurement of a number of genes for inflammatory cytokines and other mediators.

COX-1 mRNA = test: Colonic mRNA expression by RT-PCR in TNBS-induced colitis; format: in vivo, mice; conditions: dose equimolar to mesalamine 50 mg/kg; FIG. 13
Experimental: as §1
(§2) In particular, mRNA expression in mice of tumour necrosis factor-alpha (TNF-α), interferon gamma (IFN-[…]γ), colonic interleukin (IL)-1, IL-2, IL-10, IL-12 p40, RANTES, cyclooxygenase (COX)-1, COX-2, constitutive endothelial nitric oxide synthase (eNOS), and inducible NOS (iNOS) was measured as described in Wallace et al. (1999) Gastroenterology 117: 557-566, incorporated herein by reference.
(§3) Briefly, reverse transcription-polymerase chain reaction (RT-PCR) was used to detect and quantify mRNA of the particular cytokine/chemokine/enzyme. Glyceraldehyde-3-phosphate dehydrogenase (GAPDH) was used as the “housekeeping gene” for mRNA expression (i.e., as an internal control). For each sample, the ratio of the amplification of the target gene to the amplification of GAPDH (expression of each is measured by performing densitometry on gels) was obtained. Comparisons were then made between the relative amplification (expression) of the target gene in tissues for the treatment groups in comparison to the expression in tissues from healthy controls. Thus, the data shown in FIGS. 7-14 represent the relative expression of the target gene (normalized to GAPDH expression) as a ratio to the expression in healthy controls.

COX-2 mRNA = test: as above; format: in vivo, mice; conditions: dose equimolar to mesalamine 50 mg/kg; FIG. 13
Experimental: as §1, §2, §3

IL-10 mRNA = test: as above; format: in vivo, mice; conditions: dose equimolar to mesalamine 50 mg/kg; normalized to GAPDH, ratio to healthy controls
Experimental: as §1, §2, §3

eNOS mRNA = test: as above; format: in vivo, mice; conditions: dose equimolar to mesalamine 50 mg/kg; FIG. 14
Experimental: as §1, §2, §3

iNOS mRNA = test: as above; format: in vivo, mice; conditions: dose equimolar to mesalamine 50 mg/kg; FIG. 14
Experimental: as §1, §2, §3

[2] = test system: mRNA for several pro-inflammatory cytokines and chemokines; test: as above; format: in vivo, mice; conditions: dose equimolar to mesalamine 50 mg/kg; normalized to GAPDH, ratio to healthy controls
Experimental: as §1, §2, §3

Nc1ccc(O)c(C(=O)Oc2ccc(-c3cc(=S)ss3)cc2)c1 [Compound XXXV, 5-Amino-2-hydroxy-benzoic acid 4-(5-thioxo-5H-[1,2]dithiol-3-yl)-phenyl ester]
Disease Activity Index ([1]; Compound XXXV 130 mg/kg vs mesalamine 50 mg/kg, ADT-OH 80 mg/kg and their mixture, FIG. 3): almost twice as effective as either mesalamine alone, ADT-OH alone or a mixture of mesalamine and ADT-OH
MPO activity (granulocyte infiltration) ([1]; Compound XXXV 130 mg/kg, FIG. 4): significantly reduced inflammation
every endpoint of FIGS. 7-14 (MPO activity, disease activity score, mRNA expression) ([1]; dose equimolar to mesalamine 50 mg/kg, compared with mesalamine): superior to mesalamine in every endpoint
Disease Activity Score ([1]; dose-ranging, oral every 12 h for 5 days, equimolar doses of 50 mg/kg and 75 mg/kg, compared with mesalamine, FIG. 1): superior to mesalamine in reducing the activity score
myeloperoxidase (MPO) activity ([1]; dose-ranging, oral every 12 h for 5 days, highest doses tested, FIG. 2): significantly reduced (almost in half)
COX-1 mRNA expression (COX-1 mRNA): suppressed
COX-2 mRNA expression (COX-2 mRNA): suppressed
expression of IL-10 mRNA (IL-10 mRNA): did not suppress expression of IL-10 mRNA
eNOS mRNA expression (eNOS mRNA): suppressed
iNOS mRNA expression (iNOS mRNA): suppressed
expression of mRNA for pro-inflammatory cytokines and chemokines [2]: suppressed expression of mRNA for several pro-inflammatory cytokines and chemokines
